Assays:
mouse primary neurons = test: Viability of primary neuronal cultures, basal conditions (trypan blue); type: cell-based; details: 100 nM, 24 h
Method: A mouse primary cell experiment was performed to examine the neuroprotective effects of CB2R agonists selected for in-depth study (16i, 16j, 18e, 18f, 18o, and 18p). First, to exclude any intrinsic toxicity of the selected candidates, their potential effects on primary cell cultures were assessed. […] This finding is particularly noteworthy, and not self-evident, given the significant neurotoxicity observed during our earlier study with structurally related, classical abused [CB1R/CB2R promiscuous] synthetic cannabinoids (SCRAs). For comparative purposes, Figure A also depicts cell viability data obtained for some abused SCRAs (Figure A, gray bars) under identical conditions.
To prepare primary neurons, brains from fetuses of pregnant CD1 mice were removed (gestational age: 19 days). Neurons were isolated as described in Hradsky et al. Briefly, after removal of the meninges, samples were dissected and digested with 0.25% trypsin (20 min at 37 °C). The effect of trypsin was stopped by adding an equal volume of culture medium (supplemented DMEM). A single-cell suspension was obtained by repeated pipetting followed by passage through a 100 μm-pore mesh. Pelleted (7 min, 200g) cells were resuspended in 2 mL of supplemented DMEM and seeded at a density of 3.5 × 10^5 cells/mL in 6-well plates. After 24 h, the medium was replaced by neurobasal medium supplemented with 2 mM L-glutamine, 100 U/mL penicillin/streptomycin and 2% (v/v) B27 medium (GIBCO, Waltham, MA, USA). Primary neurons were assayed after 14 days in culture. Using NeuN as a marker, the percentage of neurons in the culture was >90%.
Primary cultures of striatal neurons were treated for 24 h with selected SCRAs (100 nM). Afterward, cells were scrapped from the plate and resuspended in neurobasal medium supplemented with 2 mM L-glutamine, 100 U/mL penicillin/streptomycin and 2% (v/v) B27 (GIBCO). Trypan blue staining was performed mixing 1 part of 0.4% trypan blue and 1 part of cell suspension in a plastic tube. After ∼3 min of incubation at room temperature, 10 μL of the mixture were sampled in a Neubauer chamber and counted with a Countess II FL (Life Technologies, California, CA, USA). The unstained (viable) and stained (nonviable) cells were counted separately, and the percentage of viability was calculated as total number of viable cells/total number of cells × 100.

CB1R = CB1R (Homo sapiens, UniProt P21554); test: CB1R radioligand binding competition ([3H]CP55,940); set-up: host or cells: CHO-CB1 C3 cell line; details: for CB1R % at 1 μM: percentage displacement of specific [3H]CP 55,940 binding at 1 μM, n = 2
CB2R [1] = target: T1, CB2R (Homo sapiens, UniProt P34972); test: CB2R radioligand binding competition ([3H]CP55,940); set-up: expressed in transfected cells; host or cells: HEK-293T (HEK-CB2 cell line); details: for Ki: displacement of [3H]CP 55,940, membranes of HEK-293T cells, n = 3; for SI Ki CB1R/Ki CB2R: selectivity index, affinity ratio
CB2R [2] = target: T1, CB2R; test: Signaling bias quantification (relative activity model, JWH-133 reference); type: cell-based; set-up: expressed in transfected cells; host or cells: HEK-293T, transient transfection (PEI); details: in parentheses
Text: JWH-133, a well-known nonbiased (balanced) agonist, was employed as the reference for comparing the signaling profiles of the tested compounds. An operational model analysis was applied to quantify the functional bias of each CB2R-selective agonist. This involved calculating the bias factor by comparing the signaling pathways: β-arrestin versus cAMP, MAPK versus cAMP, and β-arrestin versus MAPK.

[3] = Drug transport (BBB permeability) in Caco-2 monolayer; type: in vitro ADME; details: human; for efflux ratio at 120 min: Caco-2, bidirectional permeability ratio, read-out: P app (BA/AB); for Papp A→B at 120 min / Papp B→A at 120 min: Caco-2 monolayer, 1 × 10^–4 M
Method: (§1) To validate the early predictions from the CNS-MPO and BOILED-egg models (Figure ), we experimentally assessed the BBB permeability and P-gp interaction of the selected CB2R agonists. For these studies, two pairs of amide enantiomers (18p and 18o, 18e, and 18f) were selected, and the evaluations were conducted using established protocols previously published by our group. Key parameters measured included the permeability coefficients (P appBA and P appAB), the bidirectional permeability ratio (BA/AB), and the degree of interaction with P-gP, as detailed in Table .
Caco-2 cells were grown in Dulbecco’s high-glucose modified eagle medium, composed of 10% fetal bovine serum, 2 mM of glutamine, 100 U/mL of penicillin, and 0.1 mg/mL of streptomycin (all components purchased from Corning, Milan, Italy) in a humidified incubator at 37 °C with a 5% CO2 atmosphere. The experiment started with the preparation of the Caco-2 monolayer, which occurred by seeding the cells (20,000/well) in Millicell plates (Millipore, Milan, Italy). Its growth was followed for 21 days by changing the medium occasionally and measuring its transepithelial electrical resistance (TEER) daily using an epithelial voltohmmeter (Millicell-ERS) until a TEER value >240 ohms × cm^2 was reached. After 21 days, the plate was washed twice with Hank’s balanced salt solution (HBSS) (Invitrogen). After the second wash, the wells were filled with buffer, and the plate was kept at 37 °C for 30 min. After the incubation time, the HBSS buffer was replaced with the solutions of the compounds to be tested at a concentration of 1 × 10^–4 M. The plates were placed in an incubator at 37 °C for 120 min. The apparent permeability (P app), in units of nm s^–1, was calculated as previously reported. ,

P-glycoprotein (P-gp) = P-glycoprotein (P-gp) (Homo sapiens, UniProt P08183); test: P-gp interaction, Calcein-AM experiment; type: cell-based; details: for P-gp interaction % at 100 μM: inhibition at 100 μM; for EC50: Calcein-AM
Method: as §1
This experiment was carried out as described by Contino et al. with minor modifications. Each cell line (30,000 cells per well) was seeded into black CulturePlate 96/wells plate with 100 μL medium and allowed to become confluent overnight. 100 μL of test compounds were solubilized in culture medium and added to monolayers, with final concentrations ranging from 0.1 to 100 μM. 96/Wells plate was incubated at 37 °C for 30 min. Calcein-AM was added in 100 μL of Phosphate Buffered Saline (PBS) to yield a final concentration of 2.5 μM and plate was incubated for 30 min. Each well was washed 3 times with ice cold PBS. Saline buffer was added to each well and the plate was read with Victor3 (PerkinElmer) at excitation and emission wavelengths of 485 and 535 nm, respectively. In these experimental conditions Calcein cell accumulation in the absence and in the presence of tested compounds was evaluated and fluorescence basal level was estimated with untreated cells. In treated wells the increase of fluorescence with respect to basal level was measured. EC50 values were determined by fitting the fluorescence increase percentage versus log[dose].

Sequence of CB1R (P21554 whole entry): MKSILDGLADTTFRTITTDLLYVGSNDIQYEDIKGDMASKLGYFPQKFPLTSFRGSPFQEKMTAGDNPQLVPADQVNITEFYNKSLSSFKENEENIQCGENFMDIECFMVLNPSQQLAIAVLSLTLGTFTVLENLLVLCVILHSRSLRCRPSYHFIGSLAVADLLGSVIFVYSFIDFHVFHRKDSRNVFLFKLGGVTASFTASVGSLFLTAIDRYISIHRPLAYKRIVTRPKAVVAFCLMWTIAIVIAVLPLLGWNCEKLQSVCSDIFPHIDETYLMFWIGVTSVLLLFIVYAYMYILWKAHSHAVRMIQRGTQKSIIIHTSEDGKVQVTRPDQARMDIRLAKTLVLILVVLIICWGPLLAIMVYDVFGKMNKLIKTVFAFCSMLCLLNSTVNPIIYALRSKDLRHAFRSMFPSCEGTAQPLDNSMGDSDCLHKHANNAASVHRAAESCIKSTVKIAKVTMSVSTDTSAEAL
T1 sequence (P34972 whole entry): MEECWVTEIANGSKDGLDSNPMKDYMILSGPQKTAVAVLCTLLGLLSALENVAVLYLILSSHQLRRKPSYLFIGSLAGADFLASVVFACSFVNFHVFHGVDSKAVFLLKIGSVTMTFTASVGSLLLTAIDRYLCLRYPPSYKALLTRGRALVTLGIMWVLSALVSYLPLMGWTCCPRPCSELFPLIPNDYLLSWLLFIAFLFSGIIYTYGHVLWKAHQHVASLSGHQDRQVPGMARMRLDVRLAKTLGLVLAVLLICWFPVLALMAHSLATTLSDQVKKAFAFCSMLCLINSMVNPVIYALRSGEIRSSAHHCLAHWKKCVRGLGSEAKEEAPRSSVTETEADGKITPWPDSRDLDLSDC
Sequence of P-glycoprotein (P-gp) (P08183 whole entry): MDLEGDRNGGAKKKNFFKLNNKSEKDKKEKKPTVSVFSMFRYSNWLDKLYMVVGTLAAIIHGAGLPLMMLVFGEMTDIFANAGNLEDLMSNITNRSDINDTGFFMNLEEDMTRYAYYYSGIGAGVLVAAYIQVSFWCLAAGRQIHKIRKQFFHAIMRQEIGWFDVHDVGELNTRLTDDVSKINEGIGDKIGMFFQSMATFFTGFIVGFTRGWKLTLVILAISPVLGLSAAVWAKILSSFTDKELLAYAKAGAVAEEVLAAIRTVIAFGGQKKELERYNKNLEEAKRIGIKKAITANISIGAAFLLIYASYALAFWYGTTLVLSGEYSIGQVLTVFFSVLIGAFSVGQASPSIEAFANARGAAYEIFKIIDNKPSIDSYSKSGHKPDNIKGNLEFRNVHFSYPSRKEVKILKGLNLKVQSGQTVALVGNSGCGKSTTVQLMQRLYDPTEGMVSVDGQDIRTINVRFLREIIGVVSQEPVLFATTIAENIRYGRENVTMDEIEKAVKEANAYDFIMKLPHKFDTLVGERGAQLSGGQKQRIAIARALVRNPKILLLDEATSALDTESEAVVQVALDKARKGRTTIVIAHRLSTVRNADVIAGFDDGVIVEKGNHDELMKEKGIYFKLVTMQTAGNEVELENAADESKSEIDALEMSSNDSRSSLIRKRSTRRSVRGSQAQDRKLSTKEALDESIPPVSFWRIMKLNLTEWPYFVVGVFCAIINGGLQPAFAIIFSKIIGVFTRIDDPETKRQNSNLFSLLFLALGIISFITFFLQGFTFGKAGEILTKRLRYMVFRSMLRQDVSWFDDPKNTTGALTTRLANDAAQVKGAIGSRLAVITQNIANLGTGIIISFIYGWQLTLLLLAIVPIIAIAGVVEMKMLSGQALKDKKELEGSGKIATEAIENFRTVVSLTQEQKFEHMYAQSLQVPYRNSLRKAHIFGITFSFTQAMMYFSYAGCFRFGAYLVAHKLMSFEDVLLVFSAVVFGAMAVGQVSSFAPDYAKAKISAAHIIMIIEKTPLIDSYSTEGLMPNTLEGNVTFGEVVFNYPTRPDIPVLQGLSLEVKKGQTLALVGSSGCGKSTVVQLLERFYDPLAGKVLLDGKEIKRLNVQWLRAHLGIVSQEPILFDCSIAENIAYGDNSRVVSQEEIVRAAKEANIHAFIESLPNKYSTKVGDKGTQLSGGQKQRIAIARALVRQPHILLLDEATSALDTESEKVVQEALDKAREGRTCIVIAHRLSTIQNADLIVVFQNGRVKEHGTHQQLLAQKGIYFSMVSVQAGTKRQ

| Compound | primary cell survival (mouse primary neurons) | Ki (CB1R; displacement of [3H]CP 55,940, membranes of CHO-CB1 C3 cells, n = 3) | Ki (CB2R [1]) | SI Ki CB1R/Ki CB2R (CB2R [1]) | Preferred (biased) pathway MAPK – cAMP (CB2R [2]) | Preferred (biased) pathway β-arrestin – MAPK (CB2R [2]) | Preferred (biased) pathway β-arrestin – cAMP (CB2R [2]) | CB1R % at 1 μM (CB1R) | efflux ratio at 120 min [3] | Papp A→B at 120 min [3] | Papp B→A at 120 min [3] | P-gp interaction % at 100 μM (P-glycoprotein (P-gp)) | inhibition at 30 min, 1 μM (P-glycoprotein (P-gp); probe Calcein-AM (2.5 μM), at 1 μM as printed in text) | EC50 (P-glycoprotein (P-gp)) |
| --- | --- | --- | --- | --- | --- | --- | --- | --- | --- | --- | --- | --- | --- | --- |
| CCCCCn1nc(C(=O)N2CCCC[C@H]2C(=O)OC)c2ccccc21 [16i] | did not affect primary cell survival | 0.685 ± 0.021 µM | 0.0109 ± 0.0005 µM | 62 | G protein | MAPK | G protein | – | – | – | – | – | – | – |
| CCCCCn1nc(C(=O)N2CCCC[C@@H]2C(=O)OC)c2ccccc21 [16j] | did not affect primary cell survival | – | 0.0891 ± 0.0031 µM | >100 | No bias | MAPK | G protein | 3% | – | – | – | – | – | – |
| NC(=O)[C@@H]1CCCCN1C(=O)c1cn(CC2CCCCC2)c2ccccc12 [18e] | did not affect primary cell survival | – | 0.0302 ± 0.0012 µM | >100 | MAPK | MAPK | β-arrestin | 19% | 0.51 | 99.5 ×10⁻⁶ cm/s | 50.6 ×10⁻⁶ cm/s | 30% | 30% | – |
| NC(=O)[C@H]1CCCCN1C(=O)c1cn(CC2CCCCC2)c2ccccc12 [18f] | did not affect primary cell survival | – | 0.0968 ± 0.0026 µM | >100 | MAPK | MAPK | β-arrestin | 11% | 0.49 | 79.2 ×10⁻⁶ cm/s | 39.3 ×10⁻⁶ cm/s | – | – | 61.8 µM |
| NC(=O)[C@@H]1CCCCN1C(=O)c1nn(Cc2ccc(F)cc2)c2ccccc12 [18o] | did not affect primary cell survival | – | 0.0546 ± 0.0011 µM | >100 | MAPK | MAPK | G protein | – | 0.39 | 72.7 ×10⁻⁶ cm/s | 29 ×10⁻⁶ cm/s | 49% | – | – |
| NC(=O)[C@H]1CCCCN1C(=O)c1nn(Cc2ccc(F)cc2)c2ccccc12 [18p] | did not affect primary cell survival | – | 0.12 ± 0.005 µM | >100 | MAPK | MAPK | G protein | 2% | 0.35 | 63.2 ×10⁻⁶ cm/s | 21.9 ×10⁻⁶ cm/s | – | – | 56.9 µM |

From publication PMC12406204 (Journal of Medicinal Chemistry, 2025)
